# Entries after “also recorded” stand apart in the source; their conditions may differ.
# Assays:
# [1] = system: A-10 rat thoracic aorta cells; assay: PDGF-stimulated smooth muscle cell proliferation assay (BrdU); format: cell-based; conditions: 10 ng/mL PDGF, A-10 cells
# Method: Effects on cell proliferation were measured using a bromodeoxyuridine (BrdU) incorporation assay. […] Serum free media containing 0.1% BSA was added to the cells. 24 hours later the media was removed and replaced with warmed serum free media. […] Proliferation was then monitored using the BrdU Cell Proliferation Assay, HTS (Calbiochem cat. #HTS01). BrdU was allowed to incorporate into cells for 24 hours prior to the addition of fixative/denaturing solution and the fluorometric detection of incorporated BrdU using a BrdU antibody as per manufacturer's directions. Data are reported as a percent of the PDGF-stimulated BrdU incorporation.
# [2] = system: rat tracheal rings pretreated with IL-1β and TNF-α or vehicle; assay: Effect of inflammatory cytokines on tracheal relaxation; conditions: 300 nM carbachol
# Method: Male Sprague-Dawley rats weighing 301-325 gm were sacrificed by asphyxiation in a CO2 chamber. Trachea were excised, cleaned of connective tissue and cut into cylindrical segments of 2-3 mm length. Tissues were treated for 18 hours at 37° C. in F12 media with penicillin-streptomycin and 0.1% BSA alone or with 10 ng/ml IL-1β and 100 ng/ml TNF-α. Tissues were then washed free of cytokines with Krebs buffer. Contractile tensions were measured using an isometric force transducer (Grass Instruments) as described for Example 3 and signals were analyzed using specialized software (Chart v5.5, ADInstruments). Tissues were treated with 300 nM carbachol for 10 to 15 minutes to induce a contractile response. Test Compounds were added cumulatively to the bath every 30 minutes and reductions in tension were recorded. Basal tension was subtracted from all values and data were reported as a percentage of the maximal carbachol-induced contraction. Data were fit to the Hill equation using GraphPad Prism v5 software.
# [3] = system: ovalbumin-sensitized mice; assay: Bronchodilator assay in ovalbumin-sensitized mouse model of asthma (Penh); format: in vivo; conditions: for Reduction in airway hyperresponsivness: oral doses
# Method: Male BALB/c mice were ordered from Charles River Laboratories (Raleigh, N.C.). The animals were approximately 19 to 21 grams at time of receipt. Upon arrival, the animals were randomized into groups of five males per cage and assigned to a dosing group. Animals were quarantined for 7 days under test conditions. They were observed daily for general health status and ability to adapt to the water bottles.
# Animals were sensitized on day 0 and 14 of study by an intraperitoneal injection with 20 μg of ovalbumin (ova) and 2.0 mg aluminum hydroxide (alum) which initiates the development of a specific T-helper (Th) cells type 2 resulting in asthmatic animals. One group of animals received an injection of saline to use as non-asthmatic control animals. All animals were challenged with aerosolized 1% ova once daily for 25 minutes on days 28, 29, and 30 (Zosky, et al. Respiratory Research, 2004; 5:15). Aerosol challenge consists of using an Aerogen Aeroneb nebulizer and controller with a particle size of 4-6 μm mass median aerodynamic diameter (MMAD) with a distribution of 400 μl per minute. This aerosol challenge is necessary to target the Th2-driven allergic inflammation in the lower airways.
# The test compounds and the control vehicle were administered to animals on the day of airway hyperreactivity evaluation 30 minutes to 1 hour before the evaluation to determine the bronchodilator effects of the compounds according to the bronchodilator dosing paradigm (FIG. 3A). Compounds were administered p.o. (orally), i.p. (intraperitoneally) at 15 μMol/kg unless otherwise noted (Table 4). Alternatively, compounds were administered i.t. (intratracheally) at varying doses as shown (FIG. 3B). On day 32 of the experiment, airway hyperreactivity was evaluated by placing conscious, unrestrained animals in a whole body plethysmometer (Buxco Wilmington, N.C.) and exposing them to escalating doses of nebulized methacholine, a known bronchial constrictor which acts through the muscarinic receptors of the lungs, (doses: […]-50 mg/ml). Exposure to the methacholine doses consisted of a 3 minute period during which a nebulizer was aerosolizing the methacholine and an additional 3 minute period following the cessation of nebulization. Over this 6 minute period, the plethysmometer monitors and generates numerical values for all parameters of the breath pattern. Enhanced pause (Penh), a unitless index of airway hyperreactivity, is derived from the expiratory side of the respiratory waveform measured via the plethysmograph and is used as an indirect measure of airway resistance and hyperreactivity. […] Following the methacholine dose response, all animals were anesthetized, bled and euthanized.
# Within each experiment, a mouse was given a single compound and exposed to increasing doses of methacholine [0 (baseline), 0.375, 0.75, 1.5, 3, 6, 12, 25, 50 mg/ml]. The Penh value at each of the dose levels of methacholine represents the 6-minute average response. Change from baseline (CFB) in Penh was calculated at each methacholine dose and the area under the curve (AUC) for these CFB values was calculated using the trapezoidal rule. This same approach was applied for each mouse across multiple experiments.
# For statistical analyses, a linear mixed-effects model where the response was the log 10 transformed value of AUC described above was used. Data from equal experimental conditions across experiments performed on different days were pooled for statistical analysis and data reporting. The various compounds were compared adjusting for the log 10-transformed baseline value of Penh and the chamber (1 of 10) of the plethysmometer each mouse was contained in during an experiment. A random intercept for each experiment was assumed to account for possible similarities of the results obtained from a given experiment (i.e., as a “blocking effect”).
# For Table 4 and Table 5, Penh values are reported as log 10 transformed AUC values. […]
# [4] = system: ovalbumin-sensitized mice; assay: Anti-inflammatory assay in ovalbumin-sensitized mouse model of asthma (BALF cells and cytokines); format: in vivo
# Excerpt: Mouse model of asthma via ovalbumin sensitization was created as described in Example 5. The anti-inflammatory dosing paradigm (FIG. 4) was utilized to evaluate the anti-inflammatory effects of experimental compounds. The anti-inflammatory dosing paradigm consists of dosing the animals once a day starting on day 27 and finishing on either day 30 or 31 (1 hr prior to the aerosolized ovalbumin challenges on days 28 to 30) but not on day 32 when hyper-reactivity evaluation occurs.
# Bronchoalveolar lavage fluid (BALF) was collected by infusing 3.0 ml of saline with 10% fetal calf serum into the lungs via the trachea and then withdrawing the fluid. The total amount of cells/ml of BALF fluid was determined via manual cell count on hemocytometer. The BALF was centrifuged, supernatant removed and analyzed for cytokine concentrations as described below, and cell pellet reconstituted in 500 μL of fluid. Cytospin slides were prepared from the cell pellet using 100 μL of fluid and spinning samples for 5 minutes at 5000 rpms in a cytospin centrifuge. Following Hema3 stain, relative percentages of individual leukocytes were determined on a 200 cell count for each sample. The final concentration of individual leukocyte cell types per ml of BALF was determined by multiplication of the relative percentage of individual leukocytes with the total amount of cells/ml of BALF fluid.
# The concentrations of cytokines in the BALF samples were determined using commercially available Bio-plex kits (Bio-Rad) for the detection of mouse IL-5, IL-13, and Eotaxin. The analysis of cytokine levels was measured using the Bio-Plex 200 (Bio-Rad) system according to the manufacturer's instructions.
# [5] = Rat oral pharmacokinetics (plasma); format: in vivo
# Method: Plasma (EDTA K2 anticoagulant) was collected from male, cannulated, CD Sprague Dawley rats to determine the pharmacokinetics of formulations containing compound inhibitors of Rho kinase. Each animal was dosed orally with a 4 ml/kg solution or suspension of each test compound in 10 mM acetate buffered saline, pH 4.5 at a final concentration range of 20-30 μmol/kg. Blood was collected at 0.25, 0.5, 1, 2, 4, 6, 8, and 24 hours. Plasma samples were assayed for the concentration of the test compound using an on-line, solid phase extraction LC/MS/MS analysis system.
# Samples were analyzed on a QSTAR Elite, hybrid quadrupole time-of-flight mass spectrometer (Applied Biosystems, Framingham, Mass.) coupled with a Symbiosis Pharma integrated, on-line SPE-HPLC system (Spark Holland Inc., Plainsboro, N.J.). Analyst QS 2.0 software was used for instrument control, data acquisition and processing. […] Mobile Phase A consisted of 0.1% ammonium hydroxide in water and Mobile Phase B consisted of 0.1% formic acid in acetonitrile. Pharmacokinetic analyses were performed using WinNonlin software version 5.2 (Pharsight Corporation, Mountain View, Calif.).
# LPS-challenged mice = assay: LPS-induced neutrophilia and cytokine production assay; format: in vivo, mouse
# Method: Male BALB/c mice, approximately 19 to 21 grams, were ordered from Charles River Laboratories (Raleigh, N.C.). All animals were challenged with aerosolized LPS (10 μg/ml) for 25 minutes on study day 0. LPS aerosol was generated using an Aerogen Aeroneb nebulizer and controller providing a flow of 400 μl/min and a particle size of 2-4 μm MMAD. Rolipram was administered i.p at 20 mg/kg. […] Four hours following LPS challenge, BALF was collected using a total of 3 ml of 0.9% sodium chloride containing 10% fetal calf serum. Total cell counts were determined using the Coulter Counter. For differential evaluations, BALF was centrifuged and cytospin slides prepared and stained with Hema3 stain. Manual leukocyte counts were then completed on 200 cells. The final concentration of individual leukocyte cell types per ml of BALF was determined by multiplication of the relative percentage of individual leukocytes with the total amount of cells/ml of BALF fluid. The concentration of IL-1β in the BALF samples was determined using commercially available Bio-plex kits (Bio-Rad). The analysis of cytokine levels was measured using the Bio-Plex 200 (Bio-Rad) system according to the manufacturer's instructions.
# rat tracheal rings = assay: Tracheal relaxation assay, carbachol precontracted rings; conditions: Rattus norvegicus, read-out: IC50 Avg, tracheal ring relaxation
# Method: Trachea were excised, cleaned of connective tissue and cut into cylindrical segments of 2-3 mm length. Two stainless steel wires were guided through the lumen of the tracheal ring. One wire was fixed in the tissue bath and the other was connected to a force transducer via surgical silk. […] Indomethacin (1 μM), a cyclooxygenase inhibitor, was added to the Krebs buffer and was present throughout the experiments. Contractile tensions were measured using an isometric force transducer (Grass Instruments) and signals were analyzed using specialized software (Chart v5.5, ADInstruments). The preparations were allowed to equilibrate at a resting tension of 0.3 to 0.5 gm prior to two challenges with 60 mM KCl to assess tissue viability. After washing, tissues were treated with 1 μM carbachol for 10 to 15 minutes to induce a contractile response. Test Compounds were added cumulatively to the bath every 30 minutes and reductions in tension were recorded. Basal tension was subtracted from all values and data were reported as a percentage of the maximal carbachol-induced contraction. Data were fit to the Hill equation using GraphPad Prism v5 software.
# human neutrophils = assay: Human neutrophil chemotaxis (fMLP-induced); format: cell-based; conditions: 1 h, read-out: Chemotaxis Avg IC50
# Method: Peripheral blood from healthy human volunteers was collected and the neutrophils were isolated by Ficoll-paque density centrifugation followed by dextran sedimentation and hypotonic lysis of the red blood cells. Neutrophil chemotaxis was assessed using a modified Boyden Chamber (Neuroprobe, 96-well) with a 3 μm pore polycarbonate membrane. The ability of the tested compounds to block chemotaxis induced by a 1 μM fMLP challenge during a one hour incubation at 37° C. with 5% CO2 was assessed in a dose response manner.
# [6] = system: ovalbumin-sensitized mice; assay: Prevention of airway hyperreactivity development, anti-inflammatory dosing paradigm (Penh); format: in vivo, mouse; conditions: oral, 15 μMol/kg once a day during days 27 to 31
# human eosinophils = assay: Human eosinophil chemotaxis (eotaxin-induced); format: cell-based; conditions: 1 nM eotaxin, one hour
# Excerpt: Human Eosinophil Isolation: Peripheral blood from healthy human volunteers was collected and the PMNs separated via Ficoll-paque density centrifugation followed by hypotonic lysis of the red blood cells. Subsequently, the human eosinophils were isolated from the cell suspension via StemCell Technologies Human Eosinophil Enrichment kit (Cat. No 19256) according to the manufacturer's recommendations. Briefly, unwanted cells were specifically labeled with dextran-coated magnetic nanoparticles using bispecific Tetrameric Antibody Complexes (TAC) directed against cell surface antigens on human blood cells: […] The unwanted cells are then separated from the unlabelled eosinophils using the EasySep® magnetic isolation procedure. In Vitro Chemotaxis: […]
# murine eosinophils = assay: Murine eosinophil chemotaxis (eotaxin-induced); format: cell-based, mouse; conditions: 10 nM eotaxin, one hour
# Method: Mouse Eosinophil Isolation: Bronchoalveolar lavage was collected from ovalbumin sensitized and challenged mice in a volume of 2.5 mL lavage buffer. The lavage buffer was 0.9% saline with 10% fetal bovine serum. The pooled lavages were maintained on ice until use. The murine eosinophils were isolated using MACS cell separation (Miltenyi Biotech) by depletion of B cells and T cells by positive selection following incubation with antibody conjugated magnetic beads specific for CD45-R (B220) and CD90 (Thy 1.2), which bind B cells and T cells, respectively.
# In Vitro Chemotaxis: Eosinophil chemotaxis was assessed using a modified Boyden Chamber (Neuroprobe, 96-well) with a 5 μm pore membrane. The ability of the tested compounds to block chemotaxis induced by a 10 nM eotaxin challenge (mouse) or 1 nM eotaxin challenge (human) during one hour incubation at 37° C. with 5% CO2 was assessed. Chemotaxis was quantified via microscopy by counting the number of migrated cells in at least 3 view fields per treatment.
# [7] = Compound plasma concentrations in mice at 15 min post administration; format: in vivo, mouse; conditions: mouse plasma, 15 minutes, oral
# Method: Additionally, compound concentrations were determined in the plasma and lungs of male, ovalbumin-sensitized, Balb/c mice from a murine model of asthma. Test compounds were formulated in water or 1% polysorbate 80 and dosed at 15 μmol/kg for intraperitoneal (IP) or oral (PO) administration or formulated for intratracheal (IT) administration and dosed at 5 μmol/kg, which directly targets the lungs. Following completion of the in vivo study, mice were euthanized and blood and plasma collected approximately 2.5-3 hours post administration of test compound for bronchodialator (BD) studies and 24 hours post administration for anti-inflamatory (AI) studies. Lungs were homogenized in Matrix A lysing tubes using a FastPrep 24 tissue and cell homogenizer (MP Biomedicals, Solon, Ohio). Both plasma samples and lung extracts were assayed for compound concentrations using an on-line, solid phase extraction LC/MS/MS system.
# rat aorta = assay: Aortal relaxation assay, norepinephrine precontracted; conditions: 100 nM norepinephrine, 100 μM compound
# Method: The effects of compounds to induce relaxation of pre-contracted rat pulmonary artery and rat aorta were determined. Male Sprague-Dawley rats weighing 301-325 gm were sacrificed by asphyxiation in a CO2 chamber. Pulmonary artery or aorta were excised, cleaned of connective tissue and cut into cylindrical segments of 2-3 mm length. The preparations were mounted in a tissue bath by tying two threads of surgical silk through the lumen of the vessel. One silk was used to anchor the tissue to a metal wire in the bath and the other silk was connected to a force transducer. Preparations were mounted in 5 ml water-jacketed organ baths (Radnoti Glass Technology) filled with Krebs buffer (95 mM NaCl, 5 mM KCl, 2.6 mM CaCl2, 1.2 mM MgSO4, 24.9 mM NaHCO3, 1.2 mM KH2PO4, 10 mM glucose) maintained at 37° C. and gassed with 95% O2 and 5% CO2. Contractile tensions were measured using an isometric force transducer (Grass Instruments) and signals were analyzed using specialized software (Chart v5.5, ADInstruments). […] For pulmonary artery, compounds were added cumulatively to the bath every 30 minutes and reductions in tension were recorded. […] For aorta, a single dose of compound was added and reductions in tension were recorded.
# [8] = rat, oral, 20-30 μmol/kg, plasma, mean n = 3
# [9] = 15 μmol/kg/oral on days 27 to 31
structure (smiles),measurement,setting,value
CSc1ccc(CN2CC[C@@H](Nc3cccc4cnccc34)C2)cc1 [Compound 2.026],Percent of PDGF Induced Proliferation at 1 μM Avg,[1]; 1 μM,74.5%
same,Percent of PDGF Induced Proliferation at 10 μM Avg,[1]; 10 μM,52.0%
CS(=O)(=O)Nc1cccc(CN2CCC[C@H](Nc3ccc4[nH]ncc4c3)C2)c1 [Compound 1.091],Potency in cytokine-pretreated versus vehicle-pretreated tissues,[2],slightly more potent in cytokine-pretreated tissues
same,Relaxation of tracheal rings from vehicle-pretreated and cytokine-pretreated tissues,"[2]; 10 ng/ml IL-1β and 100 ng/ml TNF-α, 18 hours",fully efficacious
same,Reduction in airway hyperresponsiveness,"[3]; i.p. route of administration, compared to oral dosing",enhanced reduction
same,Bronchodilatory response,[3]; intratracheal administration,robust bronchodilatory response
same,Reduction in airway hyperresponsivness,[3],did not yield a significant reduction
same,Eosinophils in BALF,"[4]; dosed i.t. to day 30, anti-inflammatory dosing paradigm",reduction of eosinophils
same,Oral bioavailability,[5]; oral dosing,poor
same,AUC (0-last),[5]; [8],below the level of quantification
same,Cmax,[5]; [8],below the level of quantification
same,Efficacy on neutrophilia compared to rolipram dosed i.p.,LPS-challenged mice; dosed intratracheally,similar
same,IL-1β levels in BALF,"LPS-challenged mice; intratracheal administration, LPS-challenged mice",reduction
same,LPS-induced pulmonary neutrophilia (BALF),"LPS-challenged mice; intratracheal dosing one hour prior to LPS challenge, mice",significant reduction; also recorded: dose-dependent inhibition
"Cc1cncc2cccc(S(=O)(=O)N3CCCNC[C@@H]3C)c12 [Compound H-1152, 4-methyl-5-(2-methyl-[1,4]diazepan-1-sulfonyl)isoquinoline]",IC50,rat tracheal rings,0.164 µM
same,IC50,human neutrophils,4.35 µM
CS(=O)(=O)Nc1cccc(CN2CC[C@@H](Nc3cccc4cnccc34)C2)c1 [Compound 2.038],Reduction in airway hyperresponsivness,[3],statistically significant reduction
same,Eotaxin level in BALF,[4]; [9],reduced levels
same,IL-5 level in BALF,[4]; [9],reduced levels
same,IL-13 level in BALF,[4]; [9],reduced levels
same,Airway eosinophil infiltration (eosinophils per ml of BALF),"[4]; dosed orally to day 31, anti-inflammatory dosing paradigm",reduced
same,Prevention of airway hyperreactivity to metacholine on Day 32,[6],prevention of airway hyperreactivity
same,Eotaxin-induced chemotactic response of human eosinophils,human eosinophils,inhibited
same,Eotaxin-induced chemotactic response of murine eosinophils,murine eosinophils,inhibited
same,Detection in mouse plasma 15 minutes after oral dosing,[7],readily detectable
OCCOc1cccc(CN2CC[C@@H](Nc3cccc4cnccc34)C2)c1 [Compound 2.039],Norepinephrine-induced tension of aortal ring,rat aorta,fully reversed
